Numbered stars: 1 amine (or outer) side, 2 acyl side, 3 side chain; on linkers, the order of the positions; unused ones are H or OH. Square brackets hold non-standard residues; d marks the D form. Peptide text beside a SMILES is read from it. * marks the point of attachment. Abu(ψCOCO) = CC[C@H](N[*:1])C(=O)C(=O)[*:2]; X1 = O=C(C(=O)[*:2])[C@H](CC(F)F)N[*:1]; Pyrazinecarbonyl = O=C(c1cnccn1)*; X2 = CC(C)(N[*:1])C(=O)C(=O)[*:2]; X3 = O=C(C(=O)[*:2])C1(N[*:1])CC1; Cha = N[C@@H](CC1CCCCC1)C(=O)O; Aib = CC(C)(N)C(=O)O; NHAllyl = C=CCN*; Sar = CNCC(=O)O
molecular target: Genome polyprotein (Hepatitis C virus genotype 1a (isolate 1) (HCV), UniProt P26664); test: Inhibitory concentration against HCV NS3 protease was determined
Sequence (P26664 1027-1657 limits assumed): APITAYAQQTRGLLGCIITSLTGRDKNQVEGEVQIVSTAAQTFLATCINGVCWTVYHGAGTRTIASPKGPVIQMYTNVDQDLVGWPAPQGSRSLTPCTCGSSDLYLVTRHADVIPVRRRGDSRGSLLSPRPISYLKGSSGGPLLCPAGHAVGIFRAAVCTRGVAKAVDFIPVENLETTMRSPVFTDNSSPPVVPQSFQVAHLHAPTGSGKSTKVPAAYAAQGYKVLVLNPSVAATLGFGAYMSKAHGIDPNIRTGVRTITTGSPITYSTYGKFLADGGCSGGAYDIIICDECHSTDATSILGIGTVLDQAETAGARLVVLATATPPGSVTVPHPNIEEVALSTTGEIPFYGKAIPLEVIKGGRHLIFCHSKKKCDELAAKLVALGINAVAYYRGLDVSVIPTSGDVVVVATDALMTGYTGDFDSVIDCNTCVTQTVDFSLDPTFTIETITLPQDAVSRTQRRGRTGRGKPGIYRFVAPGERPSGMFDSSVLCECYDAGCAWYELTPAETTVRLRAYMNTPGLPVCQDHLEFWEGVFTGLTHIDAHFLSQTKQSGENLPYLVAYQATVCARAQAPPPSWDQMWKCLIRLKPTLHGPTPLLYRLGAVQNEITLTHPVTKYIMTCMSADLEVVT

Compound	IC50 [µM]
CC[C@H](NC(=O)[C@H](CC1CCCCC1)NC(=O)[C@@H](NC(=O)[C@H](CC(C)C)NC(=O)c1cnccn1)[C@@H](C)CC)C(=O)C(=O)N[C@@H](C)C(=O)O	1.3
C=CCNC(=O)C(=O)[C@H](CC)NC(=O)[C@H](CC1CCCCC1)NC(=O)[C@@H](NC(=O)[C@H](CC(C)C)NC(=O)c1cnccn1)[C@@H](C)CC	2.7
CC[C@H](C)[C@H](NC(=O)[C@H](CC(C)C)NC(=O)c1cnccn1)C(=O)N[C@@H](CC1CCCCC1)C(=O)NC(C)(C)C(=O)C(=O)NCC(=O)O (Pyrazinecarbonyl-LI[Cha][X2]G-OH)	> 60
CC[C@H](NC(=O)[C@H](CC1CCCCC1)NC(=O)[C@@H](NC(=O)[C@H](CC(C)C)NC(=O)c1cnccn1)[C@@H](C)CC)C(=O)C(=O)N1CCOCC1	> 60
CC[C@H](NC(=O)[C@H](CC1CCCCC1)NC(=O)[C@@H](NC(=O)[C@H](CC(C)C)NC(=O)c1cnccn1)[C@@H](C)CC)C(=O)C(=O)NCc1ccccc1	11
CC[C@H](C)[C@H](NC(=O)[C@H](CC(C)C)NC(=O)c1cnccn1)C(=O)N[C@@H](CC1CCCCC1)C(=O)NC1(C(=O)C(=O)NCC(=O)O)CC1 (Pyrazinecarbonyl-LI[Cha][X3]G-OH)	> 60
CC[C@H](NC(=O)[C@H](CC1CCCCC1)NC(=O)[C@@H](NC(=O)[C@H](CC(C)C)NC(=O)c1cnccn1)[C@@H](C)CC)C(=O)C(=O)N[C@H](C(=O)O)C(C)C (Pyrazinecarbonyl-LI[Cha][Abu(ψCOCO)]V-OH)	3.6
CC[C@H](NC(=O)[C@H](CC1CCCCC1)NC(=O)[C@@H](NC(=O)[C@H](CC(C)C)NC(=O)c1cnccn1)[C@@H](C)CC)C(=O)C(=O)N[C@@H](CCCCN)C(=O)O (Pyrazinecarbonyl-LI[Cha][Abu(ψCOCO)]K-OH)	7.7
CC[C@H](NC(=O)[C@H](CC1CCCCC1)NC(=O)[C@@H](NC(=O)[C@H](CC(C)C)NC(=O)c1cnccn1)[C@@H](C)CC)C(=O)C(=O)NCC(N)=O (Pyrazinecarbonyl-LI[Cha][Abu(ψCOCO)]G-NH2)	4.3
CCNC(=O)C(=O)[C@H](CC)NC(=O)[C@H](CC1CCCCC1)NC(=O)[C@@H](NC(=O)[C@H](CC(C)C)NC(=O)c1cnccn1)[C@@H](C)CC	1.8
C=CCNC(=O)C(=O)[C@H](CC)NC(=O)[C@@H]1CCCN1C(=O)[C@@H](NC(=O)[C@@H](NC(=O)[C@H](CCC(=O)O)NC(=O)[C@@H](N)CC(=O)O)C(C)C)C(C)C (H-DEVVP[Abu(ψCOCO)]-NHAllyl)	0.42
CC[C@H](NC(=O)[C@H](CC1CCCCC1)NC(=O)[C@@H](NC(=O)[C@H](CC(C)C)NC(=O)c1cnccn1)[C@@H](C)CC)C(=O)C(=O)NC1CC1	2.2
CC[C@H](NC(=O)[C@H](CC1CCCCC1)NC(=O)[C@@H](NC(=O)[C@H](CC(C)C)NC(=O)c1cnccn1)[C@@H](C)CC)C(=O)C(=O)NCC(=O)O (Pyrazinecarbonyl-LI[Cha][Abu(ψCOCO)]G-OH)	0.23
CC[C@H](NC(=O)[C@H](CC1CCCCC1)NC(=O)[C@@H](NC(=O)[C@H](CC(C)C)NC(=O)c1cnccn1)[C@@H](C)CC)C(=O)C(=O)NC(C)(C)C(=O)O (Pyrazinecarbonyl-LI[Cha][Abu(ψCOCO)][Aib]-OH)	> 60
CC[C@H](NC(=O)[C@H](CC1CCCCC1)NC(=O)[C@@H](NC(=O)[C@H](CC(C)C)NC(=O)c1cnccn1)[C@@H](C)CC)C(=O)C(=O)NCC(=O)OC (Pyrazinecarbonyl-LI[Cha][Abu(ψCOCO)]G-OMe)	5.8
CC[C@H](NC(=O)[C@H](CC1CCCCC1)NC(=O)[C@@H](NC(=O)[C@H](CC(C)C)NC(=O)c1cnccn1)[C@@H](C)CC)C(=O)C(=O)N[C@H](C)C(=O)O	> 60
CC[C@H](NC(=O)[C@H](CC1CCCCC1)NC(=O)[C@@H](NC(=O)[C@H](CC(C)C)NC(=O)c1cnccn1)[C@@H](C)CC)C(=O)C(=O)N[C@@H](CC(=O)O)C(=O)O (Pyrazinecarbonyl-LI[Cha][Abu(ψCOCO)]D-OH)	5.3
C#CCNC(=O)C(=O)[C@H](CC)NC(=O)[C@H](CC1CCCCC1)NC(=O)[C@@H](NC(=O)[C@H](CC(C)C)NC(=O)c1cnccn1)[C@@H](C)CC	1.6
CC[C@H](C)[C@H](NC(=O)[C@H](CC(C)C)NC(=O)c1cnccn1)C(=O)N[C@@H](CC1CCCCC1)C(=O)N[C@@H](CC(F)F)C(=O)C(=O)NCC(=O)O (Pyrazinecarbonyl-LI[Cha][X1]G-OH)	0.06
CC[C@H](NC(=O)[C@H](CC1CCCCC1)NC(=O)[C@@H](NC(=O)[C@H](CC(C)C)NC(=O)c1cnccn1)[C@@H](C)CC)C(=O)C(=O)N1CCCC1	42
CC[C@H](NC(=O)[C@H](CC1CCCCC1)NC(=O)[C@@H](NC(=O)[C@H](CC(C)C)NC(=O)c1cnccn1)[C@@H](C)CC)C(=O)C(=O)NCCC(=O)O	12
CC[C@H](NC(=O)[C@H](CC1CCCCC1)NC(=O)[C@@H](NC(=O)[C@H](CC(C)C)NC(=O)c1cnccn1)[C@@H](C)CC)C(=O)C(=O)N(C)CC(=O)O (Pyrazinecarbonyl-LI[Cha][Abu(ψCOCO)][Sar]-OH)	> 60
